Assay results published in patent US20260191962A1, “NOVEL CHLORIN E6 ANALOGUES” (RMW CHO Group Limited, priority 2022, published 2026).
Counter-ions that a name gives are not always drawn. Like-named read-outs stand apart in the source and are kept apart here.

How the values were obtained:
[1] = system: SKOV3 ovarian cancer cells; test: Inherent cytotoxicity (dark toxicity) in SKOV3 cells (AlamarBlue viability); details: 24 h incubation, no light activation
[2] = system: SKOV3 ovarian cancer cells; test: Phototoxicity of chlorin e6 analogues in SKOV3 cells after 652 nm laser activation (AlamarBlue viability); format: cell-based, Human; details: for IC90: 24 h uptake, 652 nm laser 50 mW/cm^2 for 5 mins (15 J/cm^2), viability 24 h later; for Phototoxicity in vitro compared with compounds 1, 2 and 8: comparison in words
Description: Samples were stored at 4° C. protected from light.
All data are shown as mean±SD (where appropriate).
To test for phototoxicity, cells incubated with chlorin e6 analogues (0-10 μM in DMSO) had culture media replaced after 24 hours (as above) and were then exposed to a 652 nm laser (Invion) with laser density at 50 mW/cm^2 for 5 mins (total 15 J/cm^2). Following activation, cells were cultured for a further 24 hours. Media was then replaced with fresh media containing AlamarBlue, and % viable cells remaining assessed as above. Controls included cells treated with chlorin e6 analogues but not activated by laser light; cells without chlorin e6 analogue treatment but with laser light; and untreated controls. All measurements were made in quadruplicate.
To evaluate the therapeutic potential of chlorin e6 analogues, the therapeutic index (TI) was calculated. TI provides a quantitative measurement to describe relative drug safety, by comparing the drug concentration required for desirable effects versus the concentration resulting in undesirable off-target toxicity. TI was calculated using phototoxicity IC90 vs dark toxicity IC10.

[3] = system: SKOV3 ovarian cancer cells; details: human, 24 h
Description: Photosensitizers (e.g. chlorin e6 analogue, chlorin e4 disodium (provided by Advanced Molecular Technologies, Scoresby) or Talaporfin sodium (purchased from Focus Bioscience cat #HY-16477-5MG)) were resuspended in 100% dimethylsulfoxide (DMSO) at a concentration of 5.5 mM. Samples were stored at 4° C. protected from light.
For in vitro experiments, photosensitizers (stock solution 5.5 mM in 100% DMSO) were diluted 1:100 in concentrated excipient solution (final 55 M photosensitizer in 10% w/v Kollidon-12, 42.4% w/v polysorbate 80, 0.6% w/v citric acid anhydrous, 40% w/v ethanol, 1.0% DMSO). Serial dilutions were prepared in cell culture media (Dulbecco's Modified Eagle Medium/Nutrient Mixture F-12 (DMEM/F-12)) supplemented with 10% v/v Fetal Bovine Serum, 100 U/mL penicillin, 100 μg/mL streptomycin and the same excipient solution at a constant 1:55 dilution.
Human ovarian cancer cell line SKOV3 (ATCC #HTB-77) was maintained in Dulbecco's Modified Eagle Medium/Nutrient Mixture F-12 (DMEM/F-12), supplemented with 10% v/v Fetal Bovine Serum, 100 U/mL penicillin and 100 g/mL streptomycin. Monolayer cultures were grown in a humidified incubator at 37° C. with 5% CO2. Once cells had reached ~80% confluence, spent media was replaced with media containing photosensitizer at the required concentration and cells were incubated for the desired period of time to allow photosensitizer uptake.
Spectral absorbance and viability measurements were normalized in the range 0-100%, with a minimum of 0 and a maximum value determined from the dataset. Dose response was determined using a sigmoidal four-point non-linear regression with variable slope, and IC10 or IC90 calculated for each compound. All data are shown as mean±SD (where appropriate).
SKOV3 cells were seeded in 96-well black wall plates (Greiner #655090) at a cell density of 5000 cells in 100 μl culture medium per well. On reaching 60% confluence, media was aspirated and replaced with fresh media containing the relevant chlorin e6 analogue from 0-100 μM in DMSO. Cells were incubated for a further 24 hours, allowing uptake of chlorin e6 analogues.
To test for inherent cytotoxicity (i.e. “dark toxicity”) of the chlorin e6 analogues, the culture media was replaced after 24 hours with fresh media containing 10% (v/v) AlamarBlue Cell Viability Reagent (ThermoFisher) and cells incubated at 37° C. for 6 hours. Untreated cells were used as a control. Fluorescence (Ex 555 nm/Em 596 nm) was measured using a Cytation 3 Cell Imaging Multi-Mode Reader (Biotek), and cytotoxicity assessed according to the % viable cells remaining. All measurements were made in quadruplicate.
The phototoxicity and inherent cytotoxicity (i.e. “dark toxicity”) of chlorin e6 analogues were assessed as previously using SKOV3 ovarian cancer cells.

[4] = Stability of chlorin e6 analogue salts in aqueous solution (HPLC purity over time); format: physicochemical; details: 30° C.; for Stability: aqueous solution, overall rating in words
Description: Reaction solutions were prepared by dissolving 2-3 mg of the respective chlorin e6 analogue salt in 5 mL of distilled deionised water in a 50 mL test tube fitted with a lid. The solutions were stirred in the test tubes at 30° C. Air (oxygen) and ambient light so were not excluded. Sample HPLC analyses were performed at 0.5, 4 or 66 hours (unless indicated otherwise). The aim was to look for degradation over time.
• Mobile Phase: A=0.05% w/v phosphoric acid in distilled water; B=acetonitrile • Injection volume: 5 μL • HPLC run length: 35 minutes • Detection wavelength: 406 nm • Column temperature: 40° C.

[5] = Homo sapiens, SK-OV-3, light or radiation study
[6] = distilled deionised water, air and ambient light not excluded
[7] = distilled deionised water, air and ambient light not excluded, Disodium Salt

Row | SMILES | Stability [4] | Purity by HPLC after 0.5 hours (%) [4, 6] [%] | Purity by HPLC after 4 hours (%) [4, 6] [%] | Purity by HPLC after 66 hours (%) [4, 6] [%] | further results
1 | C=Cc1c(C)c2cc3nc(c(C)c4[nH]c(cc5nc(cc1[nH]2)C(C)=C5CC)c(C)c4C(=O)O)[C@@H](CCC(=O)O)[C@@H]3C [Chlorin e4 disodium, reference compound] | – | – | – | – | Dark toxicity μM (IC10) [1]: 40.23 µM; IC90 [2]: 21.3 µM; Phototoxicity in vitro compared with compounds 1, 2 and 8 [2]: substantially lower phototoxicity
2 | C=Cc1c(C)c2cc3nc(c(CC(=O)O)c4[nH]c(cc5nc(cc1[nH]2)C(C)=C5CC)c(C)c4C(=O)NCCCS[C@@H]1O[C@H](CO)[C@@H](O)[C@H](O)[C@H]1O)[C@@H](CCC(=O)NCCCS[C@@H]1O[C@H](CO)[C@@H](O)[C@H](O)[C@H]1O)[C@@H]3C [Compound 1, chlorin e6 bis β-D-1-thioglucose propylamide conjugate 1] | – | – | – | – | Dark toxicity μM (IC10) [3]: 168.10 µM; IC90 [2, 5]: 6.48 µM
3 | C=Cc1c(C)c2cc3nc(c(CC(=O)NCCCS[C@@H]4O[C@H](CO)[C@@H](O)[C@H](O)[C@H]4O)c4[nH]c(cc5nc(cc1[nH]2)C(C)=C5CC)c(C)c4C(=O)NCCCS[C@@H]1O[C@H](CO)[C@@H](O)[C@H](O)[C@H]1O)[C@@H](CCC(=O)NCCCS[C@@H]1O[C@H](CO)[C@@H](O)[C@H](O)[C@H]1O)[C@@H]3C [Compound 2, chlorin e6 tris β-D-1-thioglucose propylamide conjugate 2] | – | – | – | – | Dark toxicity μM (IC10) [3]: 167.50 µM; IC90 [2, 5]: 7.89 µM
4 | C=Cc1c(C)c2cc3nc(c(CC(=O)N(C)CCC[P+](c4ccccc4)(c4ccccc4)c4ccccc4)c4[nH]c(cc5nc(cc1[nH]2)C(C)=C5CC)c(C)c4C(=O)OC)[C@@H](CCC(=O)OC)[C@@H]3C [Compound 8, Chlorin e6 N-(methylaminopropyl)triphenylphosphonium Bromide Dimethyl Ester] | – | – | – | – | Dark toxicity μM (IC10) [3]: 1.032 µM; IC90 [2, 5]: 0.00418 µM
5 | C=Cc1c(C)c2cc3nc(c(CC(=O)N(C)CCCC)c4[nH]c(cc5nc(cc1[nH]2)C(C)=C5CC)c(C)c4C(=O)O)[C@@H](CCC(=O)O)[C@@H]3C [Compound 11, Chlorin e6 N-methylbutylamine bis(N-methyl-D-glucamine) Salt] | Good | 94.15 | 93.94 | – | Purity by HPLC (%) after 7 days ([4]; distilled deionised water, air and ambient light not excluded, after 7 days): 93.93 (after %
6 | C=Cc1c(C)c2cc3nc(c(CC(=O)O)c4[nH]c(cc5nc(cc1[nH]2)C(C)=C5CC)c(C)c4C(=O)OC)[C@@H](CCC(=O)O)[C@@H]3C [Compound 12, Chlorin e6 5-methyl Ester Monosodium Mono(N-methyl-D-glucamine) Salt] | Poor | 83.73 | 81.10 | 36.95 | –
7 | C=Cc1c(C)c2cc3nc(c(CC(=O)O)c4[nH]c(cc5nc(cc1[nH]2)C(C)=C5CC)c(C)c4C(=O)OC)[C@@H](CCC(=O)O)[C@@H]3C [Compound 13, Chlorin e6 5-methyl Ester Disodium Salt] | Poor | – | – | – | Purity by HPLC after 0.5 hours (%) [4, 7]: 85.46%; Purity by HPLC after 4 hours (%) [4, 7]: 81.54%; Purity by HPLC after 66 hours (%) [4, 7]: 41.60%
8 | C=Cc1c(C)c2cc3nc(c(CC(=O)OCC)c4[nH]c(cc5nc(cc1[nH]2)C(C)=C5CC)c(C)c4C(=O)O)[C@@H](CCC(=O)O)[C@@H]3C [Compound 17, Chlorin e6 15-ethyl Ester Disodium Salt] | – | – | – | – | Purity by HPLC after 66 hours (%) [4, 7]: 76.69%; Purity by HPLC (%) after 2 hours ([4]; distilled deionised water, air and ambient light not excluded, after 2 hours): 77.60 (after %
9 | C=Cc1c(C)c2cc3nc(c(CC(=O)N[C@@H](CC(=O)O)C(=O)O)c4[nH]c(cc5nc(cc1[nH]2)C(C)=C5CC)c(C)c4C(=O)O)[C@@H](CCC(=O)O)[C@@H]3C [Talaporfin sodium, reference compound] | – | – | – | – | Dark toxicity μM (IC10) [1]: 11.10 µM; Phototoxicity in vitro compared with compounds 1, 2 and 8 [2]: substantially lower phototoxicity

Further lines, with some results ahead:

Row | Stability [4] | Purity by HPLC after 0.5 hours (%) [4, 6] [%] | Purity by HPLC after 4 hours (%) [4, 6] [%] | Purity by HPLC after 66 hours (%) [4, 6] [%] | SMILES | further results
10 | Good | – | – | 95.34 | C=Cc1c(C)c2cc3nc(c(CC(=O)OCC)c4[nH]c(cc5nc(cc1[nH]2)C(C)=C5CC)c(C)c4C(=O)O)[C@@H](CCC(=O)O)[C@@H]3C [Compound 16, Chlorin e6 15-ethyl Ester bis(N-methyl-D-glucamine) Salt] | –
11 | Poor | 81.39 | 81.28 | 1.62 | C=Cc1c(C)c2cc3nc(c(CC(=O)O)c4[nH]c(cc5nc(cc1[nH]2)C(C)=C5CC)c(C)c4C(=O)OC)[C@@H](CCC(=O)O)[C@@H]3C [Compound 20, Chlorin e6 5-methyl Ester bis(N-methyl-D-glucamine) Salt] | –
12 | Poor | 88.56 | 84.33 | 40.27 | C=Cc1c(C)c2cc3nc(c(CC(=O)O)c4[nH]c(cc5nc(cc1[nH]2)C(C)=C5CC)c(C)c4C(=O)O)[C@@H](CCC(=O)O)[C@@H]3C [Photodithiazine, reference compound] | –
